In publication PMC11466185, “Mechanisms and efficacy of small molecule latency-promoting agents to inhibit HIV reactivation ex vivo” (JCI Insight, 2024):
Several values for one entry are separate records, joined by “and”; a condition that tells them apart may be missing. Equal entries are not always repeated. Where two headings read alike, the source gives them in different places.

Tests used:
[1] = system: HIV transcripts (TAR, LLTR, Pol, PolyA, TatRev); experiment: Cell-associated HIV transcripts (RT-ddPCR) 6 days after anti-CD3/CD28 activation of PBMCs from ART-suppressed PWH; assay type: cell-based; details: for Pol / PolyA / TAR / TatRev: DMSO αCD3/28 = 100, Fig 4A; for LLTR/TAR / PolyA/LLTR / TatRev/PolyA: DMSO+CD3/28 = 1, Fig 4B, C and D
Method: (§1) Next, we evaluated the ability of the candidate LPAs to sustain the inhibitory effects during a prolonged ex vivo culture. To this end, PBMCs were cultured in the presence of individual drugs in DMSO or in DMSO alone as control, activated (anti-CD3/CD28), and harvested after 6 days. […] However, we decided to test the drug on day 6 because extra cells were available from some study participants.
Each drug was tested in PBMCs from at least 6 ART-suppressed study participants (except for KRIBB11, n = 5). PBMCs were aliquoted into wells at 6 × 10^6 cells/well. After activation, the cells were cultured with antiretrovirals in the presence of individual drugs in DMSO or DMSO alone as control. All conditions were tested in the presence of CD3/28 T cell–activating beads, except for the unactivated DMSO condition. After 6 days, total cellular RNA was extracted, and the progression through different stages of HIV transcription was quantified by measuring the levels of initiated (TAR), 5′ elongated (LLTR), midtranscribed/unspliced (Pol), completed (PolyA), and multiply spliced (TatRev) HIV transcripts. (A) The levels of all HIV transcripts were normalized to 1 μg of total cellular RNA and expressed as a percentage of the activated DMSO control (% of activated DMSO). Medians are shown as well as the individual values per study participant in different colors. (B–D) The effect of each drug on HIV transcriptional progression after activation was analyzed by the ratio of one HIV transcript to another. Ratios are independent of HIV infection frequency or normalization to cell numbers. Shown are the proportion of (B) all HIV transcripts that are elongated (LLTR/TAR), (C) elongated HIV transcripts that are completed (PolyA/LLTR), and (D) completed transcripts that are multiply spliced (TatRev/PolyA). Medians and IQR are presented, along with the individual values per study participant in different colors. P values were calculated using Wilcoxon’s signed-rank test: *P < 0.05.
PBMCs were isolated from fresh venous blood from 16 ART-suppressed HIV-infected study participants using Ficoll density gradient centrifugation. The cells were seeded at 6 × 10^6 cells/well and cultured with antiretrovirals (nevirapine and indinavir) to prevent new infection. On the next day, PBMCs were activated with anti-CD3/CD28–coated beads (Invitrogen) in the presence of 20 U/mL IL-2 and individual drugs in DMSO or DMSO alone as a control. Since we were limited in the PBMC yield per study participant, different study participants were used for different experiments (such as the initial screen, dose response, different time points, and studies in activated vs. unstimulated cells). In addition, the yields of PBMCs were sometimes insufficient to test all drugs for a given question or experiment.
(§2) For quantification of cell-associated HIV transcripts, PBMCs were harvested either after 24 hours or after 6 days. The cell viabilities were measured by trypan blue staining; then the cells were pelleted by centrifuging at 300g for 6 minutes and stored at –80°C. For quantification of virion-associated HIV RNA, cell culture supernatant was collected from 6 × 10^6 PBMCs that were treated and activated for 6 days as described above. Residual cells and cellular debris were subsequently removed from the supernatant by differential centrifugation (300g for 6 minutes, then 20,000g for 10 minutes), and the supernatant was stored at –80°C.
Total cellular DNA and RNA were extracted in parallel using Trireagent (Molecular Research Center) according to the manufacturer’s instructions, except for study participants 2147 and 2461 (Figure 4), for whom DNA and RNA were extracted using the QIAGEN AllPrep DNA/RNA/miRNA Universal Kit with on-column DNase I treatment of the RNA and the manufacturer’s modification to enhance recovery of short transcripts.

PBMCs [2] = assay type: cell-based, human; details: 6 days after αCD3/28 activation, each row one participant
Method: as §1, §2
A) After six days, the viability was measured by trypan blue staining and then normalized to the levels of the activated DMSO (% of activated DMSO). Bars indicate medians and different colors indicate individual study participants. B-F) Each drug was tested in PBMCs from at least six ART-suppressed study participants (except for KRIBB11, n=5) and the PBMCs were aliquoted into wells at 6x10^6 cells/well. After activation, the cells were cultured with antiretrovirals in the presence of individual drugs in DMSO or DMSO alone as control. After six days, total RNA was extracted and the progression through different stages of HIV transcription was (1 picture or pasted object on this page, not shown here)

PBMCs [3] = experiment: Total number of live cells (proliferation) by trypan blue staining at day 6; assay type: cell-based, human; details: for Fig 6B: total live cells relative to DMSO+CD3/28: DMSO+CD3/28 = 100
Method: Some of our candidate LPAs can block the effects of T cell activation, which could affect T cell proliferation. Therefore, we evaluated the extent to which variations in the level of infected cells may contribute to reductions in different HIV RNA transcripts. We measured the total number of viable cells (as a measure of proliferation) and the conserved U3-U5 LTR HIV DNA region (as a measure of total infection frequency) at day 6.
(A) After 6 days, the total number of live cells was measured by trypan blue staining and then normalized to the levels of the activated DMSO (% of activated DMSO). All conditions were tested in the presence of CD3^+/CD28^+ T cell–activating beads, except for the unactivated DMSO condition. Bars indicate medians, and different colors indicate individual study participants. Comparisons were performed using Wilcoxon’s signed-rank test. (B) Total cellular DNA was extracted, and the levels of U3-U5 HIV DNA were measured to quantify infection frequency at 6 days. HIV DNA levels were normalized to copies per 10^6 cells using the input of cellular DNA (assuming 1 μg of total DNA corresponds to 160,000 cells) and then normalized to the activated DMSO control (% of activated DMSO). Bars indicate medians, and different colors indicate individual study participants.

CO[C@H]([C@@H](C)[C@H]1O[C@]1(C)C[C@H](C)/C=C/C=C(\C)[C@H]1O[C@@H](CC(=O)O)CC[C@@H]1C)[C@@H](C)O [herboxidiene]
LLTR HIV transcripts (DMSO αCD3/28 = 100) ([1]; 5nM, 6 days after αCD3/28 activation, each column one participant): 64.2 and 58.48 and 54.61 and 276.32 and 371.71 and 49.79 and 55 and 16.86
Pol ([1]; participant 150b): 43.29
PolyA ([1]; participant 150b): 23.53
TAR ([1]; participant 150b): 92.09
TatRev ([1]; participant 150b): 2.69
LLTR/TAR ([1]; participant 150b): 0.5407
PolyA/LLTR ([1]; participant 150b): 0.4726
TatRev/PolyA ([1]; participant 150b): 0.11
Pol ([1]; participant 1379): 47.94
PolyA ([1]; participant 1379): 28.08
TAR ([1]; participant 1379): 40.01
TatRev ([1]; participant 1379): 171.43
LLTR/TAR ([1]; participant 1379): 1.462
PolyA/LLTR ([1]; participant 1379): 0.4801
TatRev/PolyA ([1]; participant 1379): 6.105
Pol ([1]; participant 2027): 133.33
PolyA ([1]; participant 2027): 36.92
TAR ([1]; participant 2027): 82.42
TatRev ([1]; participant 2027): 0
LLTR/TAR ([1]; participant 2027): 0.6673
PolyA/LLTR ([1]; participant 2027): 0.6713
Pol ([1]; participant 2147a): 105.88
PolyA ([1]; participant 2147a): 21.76
TAR ([1]; participant 2147a): 362.23
TatRev ([1]; participant 2147a): 28.42
LLTR/TAR ([1]; participant 2147a): 0.1772
PolyA/LLTR ([1]; participant 2147a): 0.339
TatRev/PolyA ([1]; participant 2147a): 0.3013
Pol ([1]; participant 2161): 169.45
PolyA ([1]; participant 2161): 268.67
TAR ([1]; participant 2161): 215.96
TatRev ([1]; participant 2161): 176.87
LLTR/TAR ([1]; participant 2161): 1.7212
PolyA/LLTR ([1]; participant 2161): 0.72
TatRev/PolyA ([1]; participant 2161): 0.6583
Pol ([1]; participant 2256): 18.46
PolyA ([1]; participant 2256): 16.27
TAR ([1]; participant 2256): 31.94
TatRev ([1]; participant 2256): 1.4
LLTR/TAR ([1]; participant 2256): 0.5278
PolyA/LLTR ([1]; participant 2256): 0.9648
PolyA ([1]; participant 2461): 1692.31
TAR ([1]; participant 2461): 52.19
LLTR/TAR ([1]; participant 2461): 5.294
PolyA/LLTR ([1]; participant 2461): 6.125
LLTR/TAR ([1]; participant 2747): 0
Pol ([1]; participant 5557): 23.16
PolyA ([1]; participant 5557): 23.33
TAR ([1]; participant 5557): 83.93
TatRev ([1]; participant 5557): 0
LLTR/TAR ([1]; participant 5557): 0.6507
PolyA/LLTR ([1]; participant 5557): 0.4272
Cell viability (DMSO αCD3/28 = 100) (PBMCs [2]; 5nM): 119.6 and 123.7 and 95.53 and 100.64 and 118.06 and 114.9 and 85 and 106.6 and 119.5
Total live cell numbers (proliferation) compared with activated DMSO (in words) (PBMCs [3]; day 6, Figure 6A): did not change proliferation rates
Fig 6B: total live cells relative to DMSO+CD3/28 (PBMCs [3]; participant 150b): 68
Fig 6B: total live cells relative to DMSO+CD3/28 (PBMCs [3]; participant 1379): 22.5
Fig 6B: total live cells relative to DMSO+CD3/28 (PBMCs [3]; participant 2027): 98.18
Fig 6B: total live cells relative to DMSO+CD3/28 (PBMCs [3]; participant 2147a): 103.96
Fig 6B: total live cells relative to DMSO+CD3/28 (PBMCs [3]; participant 2147b): 121.98
Fig 6B: total live cells relative to DMSO+CD3/28 (PBMCs [3]; participant 2161): 132.2
Fig 6B: total live cells relative to DMSO+CD3/28 (PBMCs [3]; participant 2256): 89.47
Fig 6B: total live cells relative to DMSO+CD3/28 (PBMCs [3]; participant 2461): 80.23
Fig 6B: total live cells relative to DMSO+CD3/28 (PBMCs [3]; participant 5557): 117.65
Total number of live cells (Fig 6A) (PBMCs [3]; study participant 1379, day 6): 82.06 % of activated DMSO
Total number of live cells (Fig 6A) (PBMCs [3]; study participant 2027, day 6): 34.68 % of activated DMSO
Total number of live cells (Fig 6A) (PBMCs [3]; study participant 2147a, day 6): 115.89 % of activated DMSO
Total number of live cells (Fig 6A) (PBMCs [3]; study participant 2147b, day 6): 188.02 % of activated DMSO
Total number of live cells (Fig 6A) (PBMCs [3]; study participant 2161, day 6): 72.75 % of activated DMSO
Total number of live cells (Fig 6A) (PBMCs [3]; study participant 2256, day 6): 87.5 % of activated DMSO
Total number of live cells (Fig 6A) (PBMCs [3]; study participant 2461, day 6): 32.33 % of activated DMSO
Total number of live cells (Fig 6A) (PBMCs [3]; study participant 5557, day 6): 99.29 % of activated DMSO

CC(=O)N[C@@H]1CCC[C@H](C(=O)Nc2cc(-c3cnn4c3CC(C)(C)C4)c(Cl)cn2)C1 [AZD4573]
LLTR/TAR ([1]; participant 2027): 0.3501
PolyA/LLTR ([1]; participant 2027): 0.2124
TatRev/PolyA ([1]; participant 2027): 0
LLTR/TAR ([1]; participant 2147a): 0.6972
PolyA/LLTR ([1]; participant 2147a): 0.4073
TatRev/PolyA ([1]; participant 2147a): 0.2876
LLTR/TAR ([1]; participant 2161): 0.7137
PolyA/LLTR ([1]; participant 2161): 1.39
TatRev/PolyA ([1]; participant 2161): 0
LLTR/TAR ([1]; participant 2461): 1.973
PolyA/LLTR ([1]; participant 2461): 0.4151
PolyA/LLTR ([1]; participant 2747): 0.4425
LLTR/TAR ([1]; participant 2750): 0.6631
PolyA/LLTR ([1]; participant 2750): 1.188
TatRev/PolyA ([1]; participant 2750): 0.2617
Cell viability (DMSO αCD3/28 = 100) (PBMCs [2]; 8nM): 123.6 and 120.68 and 105.88 and 140.1 and 117.5 and 116.7 and 104.1
